The text below walks through data of ChEMBL document CHEMBL1134193, “Initial structure-activity relationship of a novel class of nonpeptidyl GnRH receptor antagonists: 2-arylindoles” (Bioorg Med Chem Lett, 2001).

SMILES strings stand for the structures.

In one assay the target is T1, Gonadotropin-releasing hormone receptor (Rattus norvegicus, UniProt P30969).
T1 sequence (P30969 whole entry): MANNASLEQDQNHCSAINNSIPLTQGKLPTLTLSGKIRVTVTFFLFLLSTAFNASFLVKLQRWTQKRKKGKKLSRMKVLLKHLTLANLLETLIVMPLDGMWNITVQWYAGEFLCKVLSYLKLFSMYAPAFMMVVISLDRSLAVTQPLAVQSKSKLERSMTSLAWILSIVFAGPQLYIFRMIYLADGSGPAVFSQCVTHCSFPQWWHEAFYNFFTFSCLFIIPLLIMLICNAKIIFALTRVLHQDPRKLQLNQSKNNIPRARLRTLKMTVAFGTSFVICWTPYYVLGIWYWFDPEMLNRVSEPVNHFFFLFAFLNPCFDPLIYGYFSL
Briefly: Ability to displace [125I]- - radio-labeled buserelin from rat Gonadotropin-releasing hormone receptor.
Settings: not given
Broadly, the IC50 is the concentration needed to halve the response being measured. High values mean weaker potency, low ones greater potency. Take `Cc1ccc(-c2[nH]c3ccccc3c2CCNCCCCc2ccc(O)cc2)cc1`: the IC50 was determined as 9 µM.
`Cc1ccccc1-c1[nH]c2ccccc2c1CCNCCCCc1ccc(O)cc1` showed an IC50 of 0.5 µM.
For the molecule `COc1ccc(-c2[nH]c3ccccc3c2CCNC(=O)CCCc2ccc([N+](=O)[O-])cc2)cc1OC`, the IC50 is over 30 µM.
`Oc1ccc(CCCCNCCc2c(-c3ccc(F)cc3)[nH]c3ccccc23)cc1`: the IC50 was found to be 11 µM.
Still for that read-out and setting: then `Oc1ccc(CCCCNCCc2c(-c3cccc4cnccc34)[nH]c3ccccc23)cc1`, with 1.9 µM; and `COc1ccc(-c2[nH]c3ccccc3c2CCNCCCc2ccc(O)cc2)cc1OC`, with 6 µM.
With `COc1ccc(-c2[nH]c3ccccc3c2CCNCCCCc2ccc([N+](=O)[O-])cc2)cc1OC`, the IC50 worked out at 5 µM.
On the same count and under the same terms, under `Cc1cccc(-c2[nH]c3ccccc3c2CCNCCCCc2ccc(O)cc2)c1` stands 0.2 µM; under `Oc1ccc(CCCCNCCc2c(-c3csc4ccccc34)[nH]c3ccccc23)cc1`, 0.3 µM.
Consider `COc1ccc(-c2[nH]c3ccccc3c2CCNC(=O)CCCc2ccc(O)cc2)cc1OC`, for which the IC50 is over 30 µM.
Consider `COc1ccc(-c2[nH]c3ccccc3c2CCNC[C@H](O)CCc2ccc(O)cc2)cc1OC`, for which the IC50 turned out to be 2 µM.
As for `Cc1cc(C)cc(-c2[nH]c3ccccc3c2CCNCCCCCCc2ccc(O)cc2)c1`, the IC50 turned out to be 0.6 µM.
On to `Cc1ccc(C)c(-c2[nH]c3ccccc3c2CCNCCCCc2ccc(O)cc2)c1`, for which the IC50 stood at 0.4 µM.
`COc1cc(OC)cc(-c2[nH]c3ccccc3c2CCNCCCCc2ccc(O)cc2)c1` had an IC50 of 0.7 µM.
The same measure, in the same setting: under `COc1ccc(-c2[nH]c3ccccc3c2CCNCCCCc2ccc(O)cc2)cc1OC` stands 2 µM.
The same measure, in the same setting: under `COc1ccc(-c2[nH]c3ccccc3c2CCNC(=O)CCCc2ccc(N)cc2)cc1OC` stands 30 µM; under `CCc1cccc(-c2[nH]c3ccccc3c2CCNCCCCc2ccc(O)cc2)c1`, 0.9 µM.
The same measure, in the same setting: then `Oc1ccc(CCCCNCCc2c(-c3cc4ccccc4s3)[nH]c3ccccc23)cc1`, with 2.5 µM; and `COc1ccc(-c2[nH]c3ccccc3c2CCNC[C@H](O)COc2ccc(O)cc2)cc1OC`, with 3 µM.
For the molecule `COc1ccc(-c2[nH]c3ccccc3c2CCNCCCCCc2ccc(O)cc2)cc1OC`, the IC50 was 2 µM.
On the same count and under the same terms, then `COc1ccc(-c2[nH]c3ccccc3c2CCNCc2ccc(O)cc2)cc1OC`, with 20 µM; and `Cc1cc(C)cc(-c2[nH]c3ccccc3c2CCNCCc2ccc(O)cc2)c1`, with 0.2 µM.
With `COc1ccc(-c2[nH]c3ccccc3c2CCNCCc2ccc(O)cc2)cc1OC`, the IC50 amounted to 4 µM.
The same measure, in the same setting: then `Cc1cc(C)cc(-c2[nH]c3ccccc3c2CCNCc2ccc(O)cc2)c1`, with 9 µM; and `Cn1ccc2cc(-c3[nH]c4ccccc4c3CCNCCCCc3ccc(O)cc3)ccc21`, with 2.8 µM.
`Cc1cc(C)cc(-c2[nH]c3ccccc3c2CCNCCCc2ccc(O)cc2)c1` displayed an IC50 of 0.25 µM.
Molecule `COc1cccc(-c2[nH]c3ccccc3c2CCNCCCCc2ccc(O)cc2)c1` had an IC50 of 0.6 µM.
In turn, `Oc1ccc(CCCCNCCc2c(-c3cc(C(F)(F)F)cc(C(F)(F)F)c3)[nH]c3ccccc23)cc1` gave an IC50 of 1.5 µM.
Same read-out and setting: under `Cc1cc(C)cc(-c2[nH]c3ccccc3c2CCNCCCCCc2ccc(O)cc2)c1` stands 0.2 µM; under `COc1ccc(-c2[nH]c3ccccc3c2CCNCCCCc2ccc(OCc3ccccc3)cc2)cc1OC`, 30 µM.
For the molecule `COc1ccc(-c2[nH]c3ccccc3c2CCNC[C@@H](O)COc2ccc(O)cc2)cc1OC`, the IC50 is 3 µM.
`Oc1ccc(CCCCNCCc2c(-c3ccccc3)[nH]c3ccccc23)cc1` had an IC50 of 1.3 µM.
Same read-out and setting: under `COc1ccc(-c2[nH]c3ccccc3c2CCNCCCCCCc2ccc(O)cc2)cc1OC` stands 10 µM; under `Cc1cccc(C)c1-c1[nH]c2ccccc2c1CCNCCCCc1ccc(O)cc1`, 1.7 µM; under `Oc1ccc(CCCCNCCc2c(-c3cc(Cl)cc(Cl)c3)[nH]c3ccccc23)cc1`, 0.17 µM.
The same measure, in the same setting: then `Oc1ccc(CCCCNCCc2c(-c3ccc4ccccc4c3)[nH]c3ccccc23)cc1`, with 2.5 µM; and `Cc1cc(C)cc(-c2[nH]c3ccccc3c2CCNCCCCc2ccc(O)cc2)c1`, with 0.05 µM.
`Cc1cccc(-c2[nH]c3ccccc3c2CCNCCCCc2ccc(O)cc2)c1C` came in with an IC50 of 0.9 µM.
Molecule `COc1ccc(-c2[nH]c3ccccc3c2CCNCCCCc2ccc(N)cc2)cc1OC` gave an IC50 of 10 µM.
Turning to `Oc1ccc(CCCCNCCc2c(-c3cccc4ccccc34)[nH]c3ccccc23)cc1`, the IC50 was 0.13 µM.

In a further assay the target is T2, Gonadotropin-releasing hormone receptor (Rattus norvegicus) (UniProt P30969).
T2 sequence (whole entry): T1 sequence (P30969 whole entry)
Briefly: Percent inhibition of displacement of [125I]- - radio-labeled buserelin from rat Gonadotropin-releasing hormone receptor. As to conditions: concentration not given here. (In a radioligand displacement assay an active substance lowers the binding of a labelled ligand.)
Usually inhibition stands for the share of the control response that was lost under treatment. A lower inhibition goes with a weak effect. For the molecule `COc1ccc(-c2[nH]c3ccccc3c2CCNC(=O)CCCc2ccc(OCc3ccccc3)cc2)cc1OC`, the inhibition worked out at 0%.
